Key:
[1] = Biodistribution in ICR mouse muscle at 0.74 MBq, iv measured after 10 mins by automatic gamma counter analysis; type: ADME, organism-based, Muscle tissue; settings: in vivo
[2] = Biodistribution in ICR mouse blood at 0.74 MBq, iv measured after 60 mins by automatic gamma counter analysis; type: ADME, organism-based; settings: in vivo, 1 h
[3] = Drug uptake in thalamus of ICR mouse brain assessed as reduction in radioactivity incubated for 30 mins in presence of 1-(5-(3-fluorophenyl)-4,5-dihydro-1H-pyrazol-1-yl)-2,2-dimethylpropan-1-one by Phosphor Imager analysis; type: ADME, tissue-based; settings: 0.5 h, dose 0.5-10 µM
[4] = Biodistribution in ICR mouse assessed as decrease in drug accumulation in small intestine at 0.74 MBq, iv pretreated with GSK'547 followed by compound administration measured after 10 mins by automatic gamma counter analysis; type: ADME, organism-based; design: scale not given: the % may be the effect or the level left; settings: in vivo
[5] = Biodistribution in ICR mouse lung at 0.74 MBq, iv measured after 2 mins by automatic gamma counter analysis; type: ADME, organism-based; settings: in vivo
[6] = Biodistribution in ICR mouse assessed as drug accumulation in liver at 0.74 MBq, iv pretreated with GSK'547 followed by compound administration measured after 10 mins by automatic gamma counter analysis; type: ADME, organism-based; settings: in vivo
[7] = Biodistribution in ICR mouse pancreas at 0.74 MBq, iv measured after 2 mins by automatic gamma counter analysis; type: ADME, organism-based; settings: in vivo
[8] = Biodistribution in ICR mouse brain at 0.74 MBq, iv measured after 60 mins by automatic gamma counter analysis; type: ADME, organism-based; settings: in vivo, 1 h
[9] = Biodistribution in ICR mouse small intestine at 0.74 MBq, iv measured after 30 mins by automatic gamma counter analysis; type: ADME, organism-based; settings: in vivo, 0.5 h
[10] = Biodistribution in ICR mouse blood at 0.74 MBq, iv measured after 10 mins by automatic gamma counter analysis; type: ADME, organism-based; settings: in vivo
[11] = Biodistribution in ICR mouse liver at 0.74 MBq, iv measured after 2 mins by automatic gamma counter analysis; type: ADME, organism-based; settings: in vivo
[12] = Biodistribution in ICR mouse stomach at 0.74 MBq, iv measured after 30 mins by automatic gamma counter analysis; type: ADME, organism-based; settings: in vivo, 0.5 h
[13] = Biodistribution in ICR mouse pancreas at 0.74 MBq, iv measured after 30 mins by automatic gamma counter analysis; type: ADME, organism-based; settings: in vivo, 0.5 h
[14] = Biodistribution in ICR mouse kidneys at 0.74 MBq, iv measured after 30 mins by automatic gamma counter analysis; type: ADME, organism-based, Kidney; settings: in vivo, 0.5 h
[15] = Biodistribution in ICR mouse pancreas at 0.74 MBq, iv measured after 10 mins by automatic gamma counter analysis; type: ADME, organism-based; settings: in vivo
[16] = Biodistribution in ICR mouse lung at 0.74 MBq, iv measured after 30 mins by automatic gamma counter analysis; type: ADME, organism-based; settings: in vivo, 0.5 h
[17] = Drug uptake in medulla of ICR mouse brain at 0.5 to 10 uM incubated for 30 mins by Phosphor Imager analysis; type: ADME, tissue-based, Medulla of organ; settings: 0.5 h, dose 0.5-10 µM
[18] = Drug uptake in brain of TNF-alpha-induced SIRS Sprague-Dawley rat model assessed as decrease in radioactivity at 9.9 to 14.8 MBq, iv measured upto 20 mins by PET analysis; type: ADME, organism-based; design: scale not given: the % may be the effect or the level left; settings: in vivo, dose 9.9-14.8 MBq
[19] = Biodistribution in ICR mouse assessed as drug accumulation in bone without marrow at 0.74 MBq, iv pretreated with GSK'547 followed by compound administration measured after 10 mins by automatic gamma counter analysis; type: ADME, organism-based; settings: in vivo
[20] = Biodistribution in ICR mouse muscle at 0.74 MBq, iv measured after 2 mins by automatic gamma counter analysis; type: ADME, organism-based, Muscle tissue; settings: in vivo
[21] = Biodistribution in ICR mouse small intestine at 0.74 MBq, iv measured after 10 mins by automatic gamma counter analysis; type: ADME, organism-based; settings: in vivo
[22] = Biodistribution in ICR mouse muscle at 0.74 MBq, iv measured after 60 mins by automatic gamma counter analysis; type: ADME, organism-based, Muscle tissue; settings: in vivo, 1 h
[23] = Biodistribution in ICR mouse bone at 0.74 MBq, iv measured after 30 mins by automatic gamma counter analysis; type: ADME, organism-based, Bone element; settings: in vivo, 0.5 h
[24] = Drug uptake in Sprague-Dawley rat brain at 10 to 17.6 MBq, iv treated for about 1 min by PET analysis; type: ADME, organism-based; settings: in vivo, dose 10-17.6 MBq
[25] = Drug uptake in thalamus of ICR mouse brain at 0.5 to 10 uM incubated for 30 mins by Phosphor Imager analysis; type: ADME, tissue-based; settings: 0.5 h, dose 0.5-10 µM
[26] = Biodistribution in ICR mouse stomach at 0.74 MBq, iv measured after 60 mins by automatic gamma counter analysis; type: ADME, organism-based; settings: in vivo, 1 h
[27] = Drug metabolism in mouse brain assessed as polar radiometabolites accumulation at 13.5 MBq, iv measured after 30 mins by HPLC analysis; type: ADME, organism-based; settings: in vivo, 0.5 h
[28] = Drug uptake in thalamus of ICR mouse brain assessed as reduction in radioactivity at 0.5 to 10 uM incubated for 30 mins in presence of 10 uM of 1-(5-(3-fluorophenyl)-4,5-dihydro-1H-pyrazol-1-yl)-2,2-dimethylpropan-1-one by Phosphor Imager analysis; type: ADME, tissue-based; design: scale not given: the % may be the effect or the level left; settings: 0.5 h, dose 0.5-10 µM
[29] = Biodistribution in ICR mouse spleen at 0.74 MBq, iv measured after 60 mins by automatic gamma counter analysis; type: ADME, organism-based; settings: in vivo, 1 h
[30] = Biodistribution in ICR mouse assessed as decrease in drug accumulation in small intestine at 0.74 MBq, iv pretreated with 1-(5-(3-fluorophenyl)-4,5-dihydro-1H-pyrazol-1-yl)-2,2-dimethylpropan-1-one followed by compound administration measured after 10 mins by automatic gamma counter analysis; type: ADME, organism-based; design: scale not given: the % may be the effect or the level left; settings: in vivo
[31] = Biodistribution in ICR mouse spleen at 0.74 MBq, iv measured after 2 mins by automatic gamma counter analysis; type: ADME, organism-based; settings: in vivo
[32] = Biodistribution in ICR mouse heart at 0.74 MBq, iv measured after 30 mins by automatic gamma counter analysis; type: ADME, organism-based; settings: in vivo, 0.5 h
[33] = Drug metabolism in mouse plasma assessed as polar radiometabolites accumulation at 13.5 MBq, iv measured after 30 mins by HPLC analysis; type: ADME, organism-based; settings: 0.5 h
[34] = Stability in saline measured for 60 to 150 mins by reversed-phase HPLC analysis; type: physicochemical; settings: buffer; time 60-150 min
[35] = Biodistribution in ICR mouse stomach at 0.74 MBq, iv measured after 10 mins by automatic gamma counter analysis; type: ADME, organism-based; settings: in vivo
[36] = Drug metabolism in mouse liver assessed as parent compound remaining at 13.5 MBq, iv measured after 30 mins by HPLC analysis; type: ADME, organism-based; settings: read-out: Activity
[37] = Biodistribution in ICR mouse bone at 0.74 MBq, iv measured after 10 mins by automatic gamma counter analysis; type: ADME, organism-based, Bone element; settings: in vivo
[38] = Biodistribution in ICR mouse liver at 0.74 MBq, iv measured after 60 mins by automatic gamma counter analysis; type: ADME, organism-based; settings: in vivo, 1 h
[39] = Biodistribution in ICR mouse small intestine at 0.74 MBq, iv measured after 2 mins by automatic gamma counter analysis; type: ADME, organism-based; settings: in vivo
[40] = Biodistribution in ICR mouse assessed as decrease in drug accumulation in bone with marrow at 0.74 MBq, iv pretreated with 1-(5-(3-fluorophenyl)-4,5-dihydro-1H-pyrazol-1-yl)-2,2-dimethylpropan-1-one followed by compound administration measured after 10 mins by automatic gamma counter analysis; type: ADME, organism-based; design: scale not given: the % may be the effect or the level left; settings: in vivo
[41] = Biodistribution in ICR mouse brain at 0.74 MBq, iv measured after 10 mins by automatic gamma counter analysis; type: ADME, organism-based; settings: in vivo

For `CC(C)(C)C(=O)N1N=CCC1c1cccc([18F])c1` (stereo unspecified), the Drug uptake [1] was 2.48 % ID/g, the Drug uptake [2] was 0.57 % ID/g and the Activity [3] was “Dose-Dependent Effect”. The Activity [4] was 13.3%, the Drug uptake [5] was 16.41 % ID/g and the Drug uptake [6] was 23.2%. The Drug uptake [7] was 6.65 % ID/g, the Drug uptake [8] was 0.21 % ID/g and the Drug uptake [9] was 22.56 % ID/g. The Drug uptake [10] was 4.92 % ID/g, the Drug uptake [11] was 10.83 % ID/g and the Drug uptake [12] was 0.44 % ID/g. It also gave a Drug uptake [13] of 1.51 % ID/g, a Drug uptake [14] of 9.68 % ID/g and a Drug uptake [15] of 3.07 % ID/g. The Drug uptake [16] was 2.58 % ID/g, the Drug uptake [17] was “Active” and the Activity [18] was 9.1%. It also gave a Drug uptake [19] of 12.1%, a Drug uptake [20] of 3.7 % ID/g and a Drug uptake [21] of 12.64 % ID/g. For the same compound, the Drug uptake [22] was 0.47 % ID/g, the Drug uptake [23] was 8.26 % ID/g and the SUVmax [24] was 1.3. The Drug uptake [25] was “Active”, the Drug uptake [26] was 0.18 % ID/g and the Drug metabolism [27] was “Metabolite_Detected”. The Activity [28] was ~ 26%, the Drug uptake [29] was 0.41 % ID/g and the Activity [30] was 25.3%. For the same compound, the Drug uptake [31] was 3.17 % ID/g, the Drug uptake [32] was 1.3 % ID/g and the Drug metabolism [33] was “Metabolite_Detected”. The Stability [34] was over 99%, the Drug uptake [35] was 0.64 % ID/g and the remaining at 0.5 h [36] was 1.5%. It also gave a Drug uptake [37] of 4.17 % ID/g, a Drug uptake [38] of 2.69 % ID/g and a Drug uptake [39] of 5.07 % ID/g. For the same compound, the Activity [40] was 14.8% and the Drug uptake [41] was 1.36 % ID/g.

Reference: ChEMBL document CHEMBL5608244, “Preclinical Evaluation of Dihydropyrazole-Cored Positron Emission Tomography (PET) Ligands for Imaging of Receptor-Interacting Serine/Threonine Protein Kinase 1 (RIPK1) in the Brain” (J Med Chem, 2024)
